Test results as given in patent US20030068789A1, “Method for cultivating microorganism” (priority 2000, published 2003).

Test system: microorganism having nitrile hydratase activity
Test: Growth inhibition caused by cobalt ions in cultivating a microorganism
Type: cell-based
Details: sugar present in culture solution as carbon source
Text: The present inventors have conducted intensive studies on culture conditions to industrially obtain microbial cells having nitrile hydratase activity within a short period and at a high yield. […] Thus, the present invention has been accomplished.
As a result, it is possible to obtain microbial cells having nitrile hydratase enzyme activity within a short period and at a high yield

Structure (SMILES)	growth inhibition caused by cobalt ions
O=C(CO)[C@@H](O)[C@H](O)[C@H](O)CO [fructose]	can reduce growth inhibition caused by cobalt ions
OC[C@@H](O)[C@@H](O)[C@H](O)[C@H](O)CO [mannitol]	can reduce growth inhibition caused by cobalt ions
